Data from patent US9598424B2 (Takeda Pharmaceutical Company Limited, priority 2014, dated 2017).

Experiments:
Full length human TBK1 = biological target: T1, Full length human TBK1 (Homo sapiens, UniProt Q9UHD2); assay: Inhibition of TBK1 Enzyme (Caliper microfluidic assay); type: biochemical; conditions: 25 μM ATP, 60 min at RT; -log(IC50), IC50 molar; read-out: TBK1 Inhibition (pIC50) (converted)
T1 construct: Full length human TBK1 with an N-terminal His-tag; His-tag (N); made in house; host or cells: Sf9 insect cells (baculovirus, pFastBac1)
T1 sequence (Q9UHD2 1-729): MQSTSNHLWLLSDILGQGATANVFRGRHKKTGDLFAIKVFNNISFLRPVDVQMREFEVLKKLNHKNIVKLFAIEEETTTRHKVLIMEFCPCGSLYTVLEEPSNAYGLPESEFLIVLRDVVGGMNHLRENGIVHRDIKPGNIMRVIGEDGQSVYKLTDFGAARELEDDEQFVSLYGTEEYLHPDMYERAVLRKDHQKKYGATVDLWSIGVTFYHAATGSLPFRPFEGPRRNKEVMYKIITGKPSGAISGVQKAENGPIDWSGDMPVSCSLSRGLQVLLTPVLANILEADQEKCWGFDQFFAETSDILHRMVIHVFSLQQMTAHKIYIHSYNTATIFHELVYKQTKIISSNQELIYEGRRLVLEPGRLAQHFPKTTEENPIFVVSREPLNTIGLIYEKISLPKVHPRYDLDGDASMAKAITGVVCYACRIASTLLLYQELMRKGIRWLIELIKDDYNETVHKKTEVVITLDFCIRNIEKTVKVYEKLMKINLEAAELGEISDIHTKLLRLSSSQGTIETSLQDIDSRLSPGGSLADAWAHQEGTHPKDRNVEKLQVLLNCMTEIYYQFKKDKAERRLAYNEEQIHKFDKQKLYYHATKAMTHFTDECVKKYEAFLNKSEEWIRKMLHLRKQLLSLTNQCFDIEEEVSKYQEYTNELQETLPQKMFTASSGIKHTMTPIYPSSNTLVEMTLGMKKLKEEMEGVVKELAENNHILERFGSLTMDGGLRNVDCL
Outline: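 Enzyme: His-tagged full-length TBK1 expressed in Sf9. Reaction 60 min at RT in 20 mM Hepes pH 7.4, 10 mM MgCl2, 1 mM EDTA, 0.01% Brij-L23, 1 mM DTT, with 5FAM-peptide (added at 1 μM) and TBK1/ATP mix (added at 3 nM/25 μM), then EDTA-quenched. Conversion measured by microfluidic separation; 11-point 2.5-fold series fit to pIC50.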

TBK1 = biological target: T2, TBK1 (Homo sapiens, UniProt Q9UHD2); assay: Inhibition of TBK1 in Cells (TLR3 driven ISRE β-lactamase reporter assay); type: cell-based; conditions: poly IC-LMW stimulation 16 hrs; -log(EC50), EC50 molar; read-out: Inhibition of TBK1 in cells pEC50 (EC) (converted)
T2 construct: host or cells: RA1-ISRE beta-lactamase reporter cells
T2 sequence (Q9UHD2 1-729): T1 sequence (Q9UHD2 1-729)
Experimental: TBK1 inhibition is determined using a TLR3 driven RA1-ISRE β-lacatamase reporter assay (Life Technologies). In the assay 50,000 cells/well are plated in black clear bottom 384 well plate. Each test compound is prepared in DMSO using 2.5-fold serial dilutions for 11 data points, which are then added to the media. Cells are stimulated with 0.15 mg/ml poly IC-LMW (Invivogen) for 16 hrs. Reporter activity is detected using the LiveBLAzer-FRET B/G CCF4-AM substrate (Life Technologies) and the plate is read using the Spectramax M5 instrument. Corresponding EC50 values are calculated by non-linear curve fitting of the compound concentrations and percent of inhibition to the standard EC50 equation and reported as pEC50, i.e., −log(EC50), where EC50 is the molar concentration.

SMILES | IC50 (Full length human TBK1) [nM] | EC50 (TBK1) [nM]
O=C(NC1CCOCC1)c1cc(-c2ccc3nc(NC(=O)C4CC4)cn3c2)cs1 [Example 66, 4-(2-(cyclopropanecarboxamido)imidazo[1,2-a]pyridin-6-yl)-N-(tetrahydro-2H-pyran-4-yl)thiophene-2-carboxamide] | 100 | 2040
O=C(NC1CCCOC1)c1cc(-c2ccc3nc(NC(=O)C4CC4)cn3c2)cs1 (centres unmarked) [Example 67, 4-(2-(cyclopropanecarboxamido)imidazo[1,2-a]pyridin-6-yl)-N-(tetrahydro-2H-pyran-3-yl)thiophene-2-carboxamide] | 63.1 | 1170
O=C(N[C@H]1CCCOC1)c1cc(-c2ccc3nc(NC(=O)C4CC4)cn3c2)cs1 [Example 68, (S)-4-(2-(cyclopropanecarboxamido)imidazo[1,2-a]pyridin-6-yl)-N-(tetrahydro-2H-pyran-3-yl)thiophene-2-carboxamide] | 10 | 1020
O=C(N[C@@H]1CCCOC1)c1cc(-c2ccc3nc(NC(=O)C4CC4)cn3c2)cs1 [Example 69, (R)-4-(2-(cyclopropanecarboxamido)imidazo[1,2-a]pyridin-6-yl)-N-(tetrahydro-2H-pyran-3-yl)thiophene-2-carboxamide] | 100 | 2880
O=C(NC1CCOC1)c1cc(-c2ccc3nc(NC(=O)C4CC4)cn3c2)cs1 (centres unmarked) [Example 70, 4-(2-(cyclopropanecarboxamido)imidazo[1,2-a]pyridin-6-yl)-N-(tetrahydrofuran-3-yl)thiophene-2-carboxamide] | 31.6 | 891
O=C(N[C@@H]1CCOC1)c1cc(-c2ccc3nc(NC(=O)C4CC4)cn3c2)cs1 [Example 71, (R)-4-(2-(cyclopropanecarboxamido)imidazo[1,2-a]pyridin-6-yl)-N-(tetrahydrofuran-3-yl)thiophene-2-carboxamide] | 20 | 2400
O=C(N[C@H]1CCOC1)c1cc(-c2ccc3nc(NC(=O)C4CC4)cn3c2)cs1 [Example 72, (S)-4-(2-(cyclopropanecarboxamido)imidazo[1,2-a]pyridin-6-yl)-N-(tetrahydrofuran-3-yl)thiophene-2-carboxamide] | 12.6 | 1200
COCCNC(=O)c1cc(-c2ccc3nc(NC(=O)C4CC4)cn3c2)cs1 [Example 73, 4-(2-(cyclopropanecarboxamido)imidazo[1,2-a]pyridin-6-yl)-N-(2-methoxyethyl)thiophene-2-carboxamide] | 63.1 | 1660
O=C(Nc1cn2cc(-c3csc(C(=O)N4CCC(F)(F)C4)c3)ccc2n1)C1CC1 [Example 74, N-(6-(5-(3,3-difluoropyrrolidine-1-carbonyl)thiophen-3-yl)imidazo[1,2-a]pyridin-2-yl)cyclopropanecarboxamide] | 31.6 | 1350
O=C(NCC1CCOC1)c1cc(-c2ccc3nc(NC(=O)C4CC4)cn3c2)cs1 (centres unmarked) [Example 75, 4-(2-(cyclopropanecarboxamido)imidazo[1,2-a]pyridin-6-yl)-N-((tetrahydrofuran-3-yl)methyl)thiophene-2-carboxamide] | 50.1 | 1700
O=C(N[C@H]1CCCC[C@H]1O)c1cc(-c2ccc3nc(NC(=O)C4CC4)cn3c2)cs1 [Example 76, 4-(2-(cyclopropanecarboxamido)imidazo[1,2-a]pyridin-6-yl)-N-((1S,2R)-2-hydroxycyclohexyl)thiophene-2-carboxamide] | 15.8 | 912
O=C(Nc1cn2cc(-c3csc(C(=O)N4CC(F)(F)C4)c3)ccc2n1)C1CC1 [Example 77, N-(6-(5-(3,3-difluoroazetidine-1-carbonyl)thiophen-3-yl)imidazo[1,2-a]pyridin-2-yl)cyclopropanecarboxamide] | 63.1 | 1660
O=C(NCCC(F)(F)F)c1cc(-c2ccc3nc(NC(=O)C4CC4)cn3c2)cs1 [Example 78, 4-(2-(cyclopropanecarboxamido)imidazo[1,2-a]pyridin-6-yl)-N-(3,3,3-trifluoropropyl)thiophene-2-carboxamide] | 10 | 479
CC(=O)N1CCC(NC(=O)c2cc(-c3ccc4nc(NC(=O)C5CC5)cn4c3)cs2)C1 (centres unmarked) [Example 79, N-(1-acetylpyrrolidin-3-yl)-4-(2-(cyclopropanecarboxamido)imidazo[1,2-a]pyridin-6-yl)thiophene-2-carboxamide] | 79.4 | 22900
C[C@H](NC(=O)c1cc(-c2ccc3nc(NC(=O)C4CC4)cn3c2)cs1)C(F)(F)F [Example 80, (S)-4-(2-(cyclopropanecarboxamido)imidazo[1,2-a]pyridin-6-yl)-N-(1,1,1-trifluoropropan-2-yl)thiophene-2-carboxamide] | 63.1 | 1380
C[C@@H](NC(=O)c1cc(-c2ccc3nc(NC(=O)C4CC4)cn3c2)cs1)C(F)(F)F [Example 81, (R)-4-(2-(cyclopropanecarboxamido)imidazo[1,2-a]pyridin-6-yl)-N-(1,1,1-trifluoropropan-2-yl)thiophene-2-carboxamide] | 2.51 | 44.7
COCCN(CC(F)(F)F)C(=O)c1cc(-c2ccc3nc(NC(=O)C4CC4)cn3c2)cs1 [Example 83, 4-(2-(cyclopropanecarboxamido)imidazo[1,2-a]pyridin-6-yl)-N-(2-methoxyethyl)-N-(2,2,2-trifluoroethyl)thiophene-2-carboxamide] | 20 | 646
O=C(NC1COCC1O)c1cc(-c2ccc3nc(NC(=O)C4CC4)cn3c2)cs1 (centres unmarked) [Example 84, 4-(2-(cyclopropanecarboxamido)imidazo[1,2-a]pyridin-6-yl)-N-(4-hydroxytetrahydrofuran-3-yl)thiophene-2-carboxamide] | 31.6 | 2820
O=C(NC1CCCC1=O)c1cc(-c2ccc3nc(NC(=O)C4CC4)cn3c2)cs1 (centres unmarked) [Example 85, 4-(2-(cyclopropanecarboxamido)imidazo[1,2-a]pyridin-6-yl)-N-(2-oxocyclopentyl)thiophene-2-carboxamide] | 100 | 4070
O=C(N[C@H]1CCOC1)c1nc(-c2ccc3nc(NC(=O)C4CC4)cn3c2)cs1 [Example 87, (S)-4-(2-(cyclopropanecarboxamido)imidazo[1,2-a]pyridin-6-yl)-N-(tetrahydrofuran-3-yl)thiazole-2-carboxamide] | 63.1 | 2880
O=C(N[C@H]1CCC[C@H]1O)c1nc(-c2ccc3nc(NC(=O)C4CC4)cn3c2)cs1 [Example 89, 4-(2-(cyclopropanecarboxamido)imidazo[1,2-a]pyridin-6-yl)-N-((1S, 2R)-2-hydroxycyclopentyl)thiazole-2-carboxamide] | 31.6 | 1020
O=C(NC1CCCC1(F)F)c1nc(-c2ccc3nc(NC(=O)C4CC4)cn3c2)cs1 (centres unmarked) [Example 90, 4-(2-(cyclopropanecarboxamido)imidazo[1,2-a]pyridin-6-yl)-N-(2,2-difluorocyclopentyl)thiazole-2-carboxamide] | 39.8 | 1020
O=C(NC1CCCC1=O)c1nc(-c2ccc3nc(NC(=O)C4CC4)cn3c2)cs1 (centres unmarked) [Example 91, 4-(2-(cyclopropanecarboxamido)imidazo[1,2-a]pyridin-6-yl)-N-(2-oxocyclopentyl)thiazole-2-carboxamide] | 200 | 5130
O=C(NCCC(F)(F)F)c1nc(-c2ccc3nc(NC(=O)C4CC4)cn3c2)cs1 [Example 92, 4-(2-(cyclopropanecarboxamido)imidazo[1,2-a]pyridin-6-yl)-N-(3,3,3-trifluoropropyl)thiazole-2-carboxamide] | 50.1 | 1120
O=C(Nc1cn2cc(-c3csc(C(=O)N4CCC[C@@H]4C(F)(F)F)n3)ccc2n1)C1CC1 [Example 93, (R)-N-(6-(2-(2-(trifluoromethyl)pyrrolidine-1-carbonyl)thiazol-4-yl)imidazo[1,2-a]pyridin-2-yl)cyclopropanecarboxamide] | 7.94 | 110
